Measured values taken from US10654834B2 (Venenum Biodesign, LLC, priority 2016, dated 2020).
Where two headings read alike, the source gives them in different places.

Legend:
[1] = Pharmacokinetic profile in mice after oral gavage; assay type: in vivo, mouse; details: mouse; fasted male Hilltop mice, 10 mg/kg oral gavage, plasma; read-out: Cmax
Summary of the method: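 Fasted 8-week male Hilltop mice given 10 mg/kg orally in 20% PEG400/80% 0.5% CMC + 0.25% Tween-80. EDTA plasma sampled 0-4 h, measured by LC-MS/MS (MRM, positive ion); Cmax and AUC derived non-compartmentally, values being means of three mice.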

Mouse STC-1 cells = experiment: STC-1 GLP-1 assay (GLP-1 secretion); assay type: cell-based
Summary of the method: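 Mouse STC-1 cells were plated two days ahead in DMEM with 10% charcoal-dextran stripped FBS, then exposed to compound in HBSS with protease inhibitors, DPP-IV inhibitor and 0.1% fatty acid free BSA for 2 h at 37° C. Active GLP-1 in supernatant was quantified by HTRF; EC50 derived from 12-point half-log curves.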

[2] = Mouse STC-1 cells, GLP-1 secretion, 2 h, read-out: Mouse STC-1 HTRF GLP-1 Activity (EC50)

Row | Structure (SMILES) | Cmax [1] [ng/mL] | EC50 (Mouse STC-1 cells; [2]) [nM] | EC50 (Mouse STC-1 cells; Mus musculus, STC-1, read-out: EC50 concentration of GLP-1 stimulation in STC-1 cells) [nM]
1 | N#Cc1ccc(CCNC(=O)[C@@H]2CCCN2c2cc(N3CCC(CCNS(=O)(=O)CCNC(=O)[C@@H](N)CS(=O)(=O)O)CC3)nc(C(F)(F)F)n2)cc1 [Compound 125, (R)-2-amino-3-((2-(N-(2-(1-(6-((S)-2-((4-cyanophenethyl)carbamoyl)-pyrrolidin-1-yl)-2-(trifluoromethyl)-pyrimidin-4-yl)piperidin-4-yl)ethyl)sulfamoyl)ethyl)amino)-3-oxopropane-1-sulfonic acid] | 0.14 | 100 to 999 | 
2 | N#Cc1ccc(CCNC(=O)[C@@H]2CCCN2c2cc(N3CCC(CCC(=O)O)CC3)nc(C(F)(F)F)n2)cc1 [Compound 28] | 75 | 100 to 999 | 
3 | N#Cc1ccc(CCNC(=O)[C@@H]2CCCN2c2cc(N3CCC(CCCC(=O)NCCCC[C@H](NC(=N)N)C(=O)O)CC3)nc(C(F)(F)F)n2)cc1 [Compound 129, (S)-6-(4-(1-(6-((S)-2-((4-cyanophenethyl)carbamoyl)pyrrolidin-1-yl)-2-(trifluoromethyl)pyrimidin-4-yl)piperidin-4-yl)butanamido)-2-guanidinohexanoic acid] | 0.6 | 100 to 999 | 
4 | NS(=O)(=O)CCNC(=O)CCCC1CCN(c2cc(N3CCC[C@H]3C(=O)NCCc3ccc(C(F)(F)F)cc3)nc(C(F)(F)F)n2)CC1 [Compound 59, (S)-1-(6-(4-(4-oxo-4-((2-sulfamoylethyl)amino)butyl)piperidin-1-yl)-2-(trifluoromethyl)pyrimidin-4-yl)-N-(4-(trifluoromethyl)phenethyl)-pyrrolidine-2-carboxamide] | 43 | < 100 | 
5 | O=C(O)CCCC1CCN(c2cc(N3CCC[C@H]3C(=O)NCCc3ccc(C(F)(F)F)cc3)nc(C(F)(F)F)n2)CC1 [Compound 9] | 48 | < 100 | 
6 | N#Cc1ccc(CCNC(=O)[C@@H]2CCCN2c2cc(N3CCC(CCCC(=O)NCCS(N)(=O)=O)CC3)nc(C(F)(F)F)n2)cc1 [Compound 62, (S)-N-(4-cyanophenethyl)-1-(6-(4-(4-oxo-4-((2-sulfamoylethyl)amino)butyl)piperidin-1-yl)-2-(trifluoromethyl)pyrimidin-4-yl)pyrrolidine-2-carboxamide] | 33 | < 100 | 
7 | N#Cc1ccc(CCNC(=O)[C@@H]2CCCN2c2cc(N3CCC(CCN)CC3)nc(C(F)(F)F)n2)cc1 [Compound 50, (S)-1-(6-(4-(2-aminoethyl)piperidin-1-yl)-2-(trifluoromethyl)pyrimidin-4-yl)-N-(4-cyanophenethyl)pyrrolidine-2-carboxamide] | 214 | 1000 to 30000 | 
8 | N#Cc1ccc(CCNC(=O)[C@@H]2CCCN2c2cc(N3CCC(CCCC(=O)NCCNc4ncc(C(=O)NCCS(=O)(=O)O)cn4)CC3)nc(C(F)(F)F)n2)cc1 [Compound 112, (S)-2-(2-((2-(4-(1-(6-(2-((4-cyanophenethyl)carbamoyl)pyrrolidin-1-yl)-2-(trifluoromethyl)pyrimidin-4-yl)piperidin-4-yl)butanamido)ethyl)amino)-pyrimidine-5-carboxamido)ethanesulfonic acid] | 1.1 | < 100 | 
9 | N#Cc1ccc(CCNC(=O)[C@@H]2CCCN2c2cc(N3CCC(CCCC(=O)NCCS(=O)(=O)NCC(=O)O)CC3)nc(C(F)(F)F)n2)cc1 [Compound 115, (S)-2-(2-(4-(1-(6-(2-((4-cyanophenethyl)carbamoyl)pyrrolidin-1-yl)-2-(trifluoromethyl)pyrimidin-4-yl)piperidin-4-yl)butanamido)-ethylsulfonamido)acetic acid] | 2.7 | < 100 | 
10 | N#Cc1ccc(CCNC(=O)[C@@H]2CCCN2c2cc(N3CCC(CCCNC(=O)NCC(=O)O)CC3)nc(C(F)(F)F)n2)cc1 [Compound 121, (S)-2-(3-(3-(1-(6-(2-((4-cyanophenethyl)carbamoyl)pyrrolidin-1-yl)-2-(trifluoromethyl)pyrimidin-4-yl)piperidin-4-yl)propyl)ureido)acetic acid] | 235 | 100 to 999 | 

Continued, values first:

Row | Cmax [1] [ng/mL] | EC50 (Mouse STC-1 cells; [2]) [nM] | EC50 (Mouse STC-1 cells; Mus musculus, STC-1, read-out: EC50 concentration of GLP-1 stimulation in STC-1 cells) [nM] | Structure (SMILES)
11 | 28 | 100 to 999 |  | N#Cc1ccc(CCNC(=O)[C@@H]2CCN2c2cc(N3CCC(CCCC(=O)O)CC3)nc(C(F)(F)F)n2)cc1 [Compound 231, (S)-4-(1-(6-(2-((4-cyanophenethyl)carbamoyl)azetidin-1-yl)-2-(trifluoromethyl)pyrimidin-4-yl)piperidin-4-yl)butanoic acid]
12 | 18 | 100 to 999 |  | N#Cc1ccc(CCNC(=O)[C@@H]2CCCN(c3cc(N4CCC(CO)CC4)nc(C(F)(F)F)n3)C2)cc1 [Compound 308, (R)—N-(4-cyanophenethyl)-1-(6-(4-(hydroxymethyl)piperidin-1-yl)-2-(trifluoromethyl)pyrimidin-4-yl)piperidine-3-carboxamide]
13 | 7.7 | < 100 | ~55 | N#Cc1ccc(CCNC(=O)[C@@H]2CCN2c2cc(N3CCC(CCNC(=O)NCCC(=O)O)CC3)nc(C(F)(F)F)n2)cc1 [Compound 268, (S)-3-(3-(2-(1-(6-(2-((4-cyanophenethyl)carbamoyl)azetidin-1-yl)-2-(trifluoromethyl)pyrimidin-4-yl)piperidin-4-yl)ethyl)ureido)propanoic acid]
14 | 1.3 | 100 to 999 |  | CS(=O)(=O)NCCOCCNC(=O)NCCC1CCN(c2cc(N3CC[C@H]3C(=O)NCCc3ccc(C#N)cc3)nc(C(F)(F)F)n2)CC1 [Compound 292, (S)-N-(4-cyanophenethyl)-1-(6-(4-(2-(3-(2-(2-(methylsulfonylamino)-ethoxy)ethyl)ureido)ethyl)piperidin-1-yl)-2-(trifluoromethyl)pyrimidin-4-yl)azetidine-2-carboxamide]
15 | 6.8 | 100 to 999 |  | N#Cc1ccc(CCNC(=O)[C@@H]2CCCN2c2cc(N3CCC(CCCC(=O)NCS(=O)(=O)O)CC3)cc(C(F)(F)F)n2)cc1 [Compound 198, (S)-(4-(1-(2-(2-((4-cyanophenethyl)carbamoyl)pyrrolidin-1-yl)-6-(trifluoromethyl)pyridin-4-yl)piperidin-4-yl)butanamido)methanesulfonic acid]
16 | 2.5 | 100 to 999 |  | N#Cc1ccc(CCNC(=O)[C@@H]2CCCN2c2cc(N3CCC(CCNc4c(NCCC(=O)O)c(=O)c4=O)CC3)nc(C(F)(F)F)n2)cc1 [Compound 368, (S)-3-((2-((2-(1-(6-(2-((4-cyanophenethyl)carbamoyl)pyrrolidin-1-yl)-2-(trifluoromethyl)pyrimidin-4-yl)piperidin-4-yl)ethyl)amino)-3,4-dioxocyclobut-1-en-1-yl)amino)propanoic acid]
17 | 5 | < 100 |  | N#Cc1ccc(CCNC(=O)[C@@H]2CCN2c2cc(N3CCC(CCNC(=O)NCCOCCNC(=N)N)CC3)nc(C(F)(F)F)n2)cc1 [Compound 287, (S)-1-(6-(4-(1-amino-1-imino-9-oxo-5-oxa-2,8,10-triazadodecan-12-yl)piperidin-1-yl)-2-(trifluoromethyl)pyrimidin-4-yl)-N-(4-cyanophenethyl)azetidine-2-carboxamid]
